Active and inactive are the calls of the source. Cut-off read from the data, not from the text of the source, for most assays here: actives have a measured Kd and inactives only a lower limit.
Key:
Activin receptor type-2B = Activin receptor type-2B (Homo sapiens, UniProt Q13705)
[1] = target: T1, AarF domain-containing protein kinase 1 (Homo sapiens, UniProt Q86TW2)
T1 sequence (Q86TW2 whole entry): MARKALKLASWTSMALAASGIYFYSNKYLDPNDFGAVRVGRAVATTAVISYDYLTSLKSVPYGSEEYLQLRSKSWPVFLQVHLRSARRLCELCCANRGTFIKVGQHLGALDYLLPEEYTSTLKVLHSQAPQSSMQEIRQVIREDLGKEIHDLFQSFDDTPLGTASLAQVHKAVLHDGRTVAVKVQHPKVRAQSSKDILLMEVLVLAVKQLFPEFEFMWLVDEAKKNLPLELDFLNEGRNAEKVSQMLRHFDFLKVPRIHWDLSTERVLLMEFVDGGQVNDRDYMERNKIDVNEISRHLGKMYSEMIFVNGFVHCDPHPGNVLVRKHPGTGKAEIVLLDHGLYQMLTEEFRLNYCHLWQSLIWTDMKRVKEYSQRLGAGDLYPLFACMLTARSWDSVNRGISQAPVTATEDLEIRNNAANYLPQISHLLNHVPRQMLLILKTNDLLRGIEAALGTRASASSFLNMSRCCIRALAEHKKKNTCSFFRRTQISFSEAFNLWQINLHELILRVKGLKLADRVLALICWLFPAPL

[2] = target: Cyclin-dependent kinase 2 (Homo sapiens, UniProt P24941)
[3] = target: Dual specificity protein kinase CLK1 (Homo sapiens, UniProt P49759)
[4] = target: Dual specificity tyrosine-phosphorylation-regulated kinase 1A (Homo sapiens, UniProt Q13627)
[5] = target: Epidermal growth factor receptor (Homo sapiens, UniProt P00533)
[6] = target: Dual specificity mitogen-activated protein kinase kinase 1 (Homo sapiens, UniProt Q02750)
[7] = target: Mitogen-activated protein kinase kinase kinase 4 (Homo sapiens, UniProt Q9Y6R4)
[8] = target: T2, MAP/microtubule affinity-regulating kinase 4 (Homo sapiens, UniProt Q96L34)
T2 sequence (Q96L34 whole entry): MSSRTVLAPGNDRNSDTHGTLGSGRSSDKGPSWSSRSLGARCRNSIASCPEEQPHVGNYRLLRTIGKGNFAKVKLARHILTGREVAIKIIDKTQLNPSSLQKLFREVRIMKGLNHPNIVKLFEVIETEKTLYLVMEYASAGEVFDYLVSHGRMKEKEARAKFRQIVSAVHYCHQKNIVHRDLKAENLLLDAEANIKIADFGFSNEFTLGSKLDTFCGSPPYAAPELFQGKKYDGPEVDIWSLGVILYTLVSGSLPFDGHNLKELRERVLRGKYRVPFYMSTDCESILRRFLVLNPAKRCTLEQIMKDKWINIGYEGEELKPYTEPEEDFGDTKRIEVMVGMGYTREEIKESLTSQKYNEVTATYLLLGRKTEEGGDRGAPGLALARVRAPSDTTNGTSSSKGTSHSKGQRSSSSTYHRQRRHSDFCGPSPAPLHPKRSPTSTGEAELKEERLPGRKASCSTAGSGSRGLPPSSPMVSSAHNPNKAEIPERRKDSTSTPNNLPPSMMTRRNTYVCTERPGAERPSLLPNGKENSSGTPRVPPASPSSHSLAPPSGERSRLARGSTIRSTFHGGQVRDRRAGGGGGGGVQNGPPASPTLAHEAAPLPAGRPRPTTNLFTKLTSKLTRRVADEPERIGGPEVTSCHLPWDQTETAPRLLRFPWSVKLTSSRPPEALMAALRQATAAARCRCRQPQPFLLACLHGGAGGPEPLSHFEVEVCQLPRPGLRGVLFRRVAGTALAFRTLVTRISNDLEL

[9] = target: Macrophage-stimulating protein receptor (Homo sapiens, UniProt Q04912)
[10] = target: Serine/threonine-protein kinase N2 (Homo sapiens, UniProt Q16513)
[11] = target: Protein kinase C alpha type (Homo sapiens, UniProt P17252)
[12] = target: Receptor-interacting serine/threonine-protein kinase 2 (Homo sapiens, UniProt O43353)
[13] = target: T3, Serine/threonine-protein kinase STK11 (Homo sapiens, UniProt Q15831)
T3 sequence (Q15831 whole entry): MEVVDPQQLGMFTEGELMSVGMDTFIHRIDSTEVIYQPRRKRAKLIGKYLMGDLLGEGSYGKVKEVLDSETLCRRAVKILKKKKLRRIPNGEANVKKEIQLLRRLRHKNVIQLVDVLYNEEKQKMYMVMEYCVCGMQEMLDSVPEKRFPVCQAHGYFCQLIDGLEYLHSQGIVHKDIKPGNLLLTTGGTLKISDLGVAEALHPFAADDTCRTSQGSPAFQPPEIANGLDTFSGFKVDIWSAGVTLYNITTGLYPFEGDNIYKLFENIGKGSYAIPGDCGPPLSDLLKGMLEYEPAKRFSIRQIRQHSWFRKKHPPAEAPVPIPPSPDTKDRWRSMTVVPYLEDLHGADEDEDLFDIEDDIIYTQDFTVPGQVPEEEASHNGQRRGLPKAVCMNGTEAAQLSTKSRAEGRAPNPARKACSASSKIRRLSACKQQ
Note: in the data inactive means no Kd found up to 30 µM.

Sequence of Activin receptor type-2B (Q13705 whole entry, the tested form may be a part): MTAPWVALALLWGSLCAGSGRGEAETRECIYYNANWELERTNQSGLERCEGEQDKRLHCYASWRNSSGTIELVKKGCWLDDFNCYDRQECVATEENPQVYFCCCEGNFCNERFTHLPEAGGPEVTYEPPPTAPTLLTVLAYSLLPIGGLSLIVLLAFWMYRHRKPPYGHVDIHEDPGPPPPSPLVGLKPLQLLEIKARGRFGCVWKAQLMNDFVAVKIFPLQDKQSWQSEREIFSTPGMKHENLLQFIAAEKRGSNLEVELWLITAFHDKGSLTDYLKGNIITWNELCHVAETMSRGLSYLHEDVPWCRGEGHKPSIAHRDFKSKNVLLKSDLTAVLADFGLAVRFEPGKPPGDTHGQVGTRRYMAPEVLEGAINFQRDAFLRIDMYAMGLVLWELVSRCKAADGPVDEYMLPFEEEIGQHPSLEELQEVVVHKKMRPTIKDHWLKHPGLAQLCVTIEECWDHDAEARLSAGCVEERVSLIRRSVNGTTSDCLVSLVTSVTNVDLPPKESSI
Sequence of Dual specificity protein kinase CLK1 (P49759 whole entry): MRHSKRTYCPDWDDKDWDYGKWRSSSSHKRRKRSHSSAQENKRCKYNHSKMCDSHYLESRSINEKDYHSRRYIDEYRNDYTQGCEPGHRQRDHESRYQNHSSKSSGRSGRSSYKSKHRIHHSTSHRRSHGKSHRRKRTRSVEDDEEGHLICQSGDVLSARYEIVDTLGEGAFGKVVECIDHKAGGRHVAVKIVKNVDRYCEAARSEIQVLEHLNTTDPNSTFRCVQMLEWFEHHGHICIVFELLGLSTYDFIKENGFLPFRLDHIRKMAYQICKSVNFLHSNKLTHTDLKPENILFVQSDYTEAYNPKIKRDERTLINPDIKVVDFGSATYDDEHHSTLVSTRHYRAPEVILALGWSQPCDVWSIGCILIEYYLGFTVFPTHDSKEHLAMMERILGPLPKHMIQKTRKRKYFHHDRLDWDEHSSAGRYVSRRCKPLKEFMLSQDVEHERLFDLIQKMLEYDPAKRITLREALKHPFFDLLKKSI
Sequence of Epidermal growth factor receptor (P00533 whole entry): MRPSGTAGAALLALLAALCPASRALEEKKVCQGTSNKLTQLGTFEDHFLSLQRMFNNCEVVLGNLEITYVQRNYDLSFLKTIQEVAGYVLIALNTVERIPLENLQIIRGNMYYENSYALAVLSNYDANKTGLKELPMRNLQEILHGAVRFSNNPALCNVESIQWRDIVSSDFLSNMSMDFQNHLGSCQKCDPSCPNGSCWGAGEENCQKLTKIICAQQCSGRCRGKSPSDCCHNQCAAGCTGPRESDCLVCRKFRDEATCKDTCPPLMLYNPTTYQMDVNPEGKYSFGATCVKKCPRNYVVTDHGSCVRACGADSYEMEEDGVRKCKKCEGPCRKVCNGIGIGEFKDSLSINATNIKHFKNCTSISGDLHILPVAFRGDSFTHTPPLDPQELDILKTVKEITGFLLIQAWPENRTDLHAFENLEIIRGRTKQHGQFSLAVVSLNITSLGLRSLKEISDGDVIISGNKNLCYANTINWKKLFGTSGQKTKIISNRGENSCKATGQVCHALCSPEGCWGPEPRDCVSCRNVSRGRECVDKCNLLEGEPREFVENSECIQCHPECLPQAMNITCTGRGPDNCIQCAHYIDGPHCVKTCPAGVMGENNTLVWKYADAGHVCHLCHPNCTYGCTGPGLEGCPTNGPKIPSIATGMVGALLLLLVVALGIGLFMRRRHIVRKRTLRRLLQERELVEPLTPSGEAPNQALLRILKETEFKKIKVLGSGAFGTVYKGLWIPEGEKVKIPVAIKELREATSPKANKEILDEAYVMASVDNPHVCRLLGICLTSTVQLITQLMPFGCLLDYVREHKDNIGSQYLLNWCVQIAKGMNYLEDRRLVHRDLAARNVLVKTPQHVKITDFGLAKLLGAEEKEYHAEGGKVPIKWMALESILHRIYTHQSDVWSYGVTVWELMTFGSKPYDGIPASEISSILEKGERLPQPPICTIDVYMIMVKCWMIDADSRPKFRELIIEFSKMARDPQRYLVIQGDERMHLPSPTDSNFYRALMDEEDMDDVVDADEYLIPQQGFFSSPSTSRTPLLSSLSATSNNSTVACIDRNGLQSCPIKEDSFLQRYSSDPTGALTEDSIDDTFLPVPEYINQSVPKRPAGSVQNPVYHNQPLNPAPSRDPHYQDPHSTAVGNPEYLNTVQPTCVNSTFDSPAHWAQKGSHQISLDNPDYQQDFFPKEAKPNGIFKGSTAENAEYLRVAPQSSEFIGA
Sequence of Serine/threonine-protein kinase N2 (Q16513 whole entry): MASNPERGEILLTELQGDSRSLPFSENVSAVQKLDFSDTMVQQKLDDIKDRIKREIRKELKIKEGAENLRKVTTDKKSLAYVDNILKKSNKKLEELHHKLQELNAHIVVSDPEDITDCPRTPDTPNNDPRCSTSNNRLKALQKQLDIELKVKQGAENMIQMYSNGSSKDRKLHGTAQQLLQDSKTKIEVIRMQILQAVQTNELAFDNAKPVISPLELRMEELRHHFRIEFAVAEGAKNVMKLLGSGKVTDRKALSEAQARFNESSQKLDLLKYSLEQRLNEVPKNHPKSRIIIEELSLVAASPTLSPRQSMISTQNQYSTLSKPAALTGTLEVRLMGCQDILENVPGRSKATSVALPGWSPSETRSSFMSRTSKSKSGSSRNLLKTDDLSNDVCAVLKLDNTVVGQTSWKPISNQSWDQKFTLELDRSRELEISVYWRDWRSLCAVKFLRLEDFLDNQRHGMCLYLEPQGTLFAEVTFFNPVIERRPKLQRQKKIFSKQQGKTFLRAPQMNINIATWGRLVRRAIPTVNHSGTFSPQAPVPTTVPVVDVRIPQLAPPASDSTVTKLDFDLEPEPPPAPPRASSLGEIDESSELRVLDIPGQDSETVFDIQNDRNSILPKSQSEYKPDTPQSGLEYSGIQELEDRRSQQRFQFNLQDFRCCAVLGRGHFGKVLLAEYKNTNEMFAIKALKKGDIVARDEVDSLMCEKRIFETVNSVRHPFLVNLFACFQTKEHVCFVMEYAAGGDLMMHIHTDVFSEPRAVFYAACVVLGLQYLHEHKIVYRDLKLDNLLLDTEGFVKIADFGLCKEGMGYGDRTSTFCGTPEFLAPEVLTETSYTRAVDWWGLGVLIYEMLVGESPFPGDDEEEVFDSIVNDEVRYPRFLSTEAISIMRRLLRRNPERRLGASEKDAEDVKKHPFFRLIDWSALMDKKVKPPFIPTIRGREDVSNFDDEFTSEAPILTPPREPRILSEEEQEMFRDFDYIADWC
Sequence of Dual specificity mitogen-activated protein kinase kinase 1 (Q02750 whole entry): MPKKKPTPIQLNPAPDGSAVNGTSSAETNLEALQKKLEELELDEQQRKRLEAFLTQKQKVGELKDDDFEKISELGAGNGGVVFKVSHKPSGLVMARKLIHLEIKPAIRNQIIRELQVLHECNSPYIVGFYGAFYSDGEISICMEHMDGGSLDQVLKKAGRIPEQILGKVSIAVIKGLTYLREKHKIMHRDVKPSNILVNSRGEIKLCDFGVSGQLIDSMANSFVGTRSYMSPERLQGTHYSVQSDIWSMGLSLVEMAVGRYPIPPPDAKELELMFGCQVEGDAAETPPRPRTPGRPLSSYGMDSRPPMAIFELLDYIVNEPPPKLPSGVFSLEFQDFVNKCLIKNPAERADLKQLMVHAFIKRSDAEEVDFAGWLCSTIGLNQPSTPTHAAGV
Sequence of Receptor-interacting serine/threonine-protein kinase 2 (O43353 whole entry): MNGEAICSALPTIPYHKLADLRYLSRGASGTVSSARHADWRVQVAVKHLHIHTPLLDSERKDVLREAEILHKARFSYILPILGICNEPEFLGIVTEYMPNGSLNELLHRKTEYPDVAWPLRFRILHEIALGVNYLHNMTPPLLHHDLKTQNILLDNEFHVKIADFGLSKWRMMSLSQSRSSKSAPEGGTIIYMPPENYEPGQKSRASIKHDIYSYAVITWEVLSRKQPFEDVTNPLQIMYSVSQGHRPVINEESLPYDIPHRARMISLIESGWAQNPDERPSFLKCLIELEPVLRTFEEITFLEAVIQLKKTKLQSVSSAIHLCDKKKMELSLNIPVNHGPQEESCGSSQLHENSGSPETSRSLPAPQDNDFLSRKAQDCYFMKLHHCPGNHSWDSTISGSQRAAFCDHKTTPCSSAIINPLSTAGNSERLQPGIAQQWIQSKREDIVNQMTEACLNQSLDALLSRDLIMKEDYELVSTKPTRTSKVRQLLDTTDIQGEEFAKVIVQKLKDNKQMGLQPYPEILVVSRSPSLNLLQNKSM

SMILES | Kd (Activin receptor type-2B) | Kd [1] | Kd [2] | Kd [3] | Kd [4] | Kd [5] | Kd [6] | Kd [7] | Kd [8] | Kd [9] | Kd [10] | Kd [11] | Kd [12] | Kd [13]
CO[C@H]1C[C@@H]2CC[C@@H](C)[C@@](O)(O2)C(=O)C(=O)N2CCCC[C@H]2C(=O)O[C@H]([C@H](C)C[C@@H]2CC[C@@H](OP(C)(C)=O)[C@H](OC)C2)CC(=O)[C@H](C)/C=C(\C)[C@@H](O)[C@@H](OC)C(=O)[C@H](C)C[C@H](C)/C=C/C=C/C=C/1C [RIDAFOROLIMUS] | > 30 µM (inactive) | > 30 µM (inactive) | > 30 µM (inactive) | > 30 µM (inactive) | > 30 µM (inactive) | > 30 µM (inactive) | > 30 µM (inactive) | > 30 µM (inactive) | > 30 µM (inactive) | > 30 µM (inactive) | > 30 µM (inactive) | > 30 µM (inactive) | > 30 µM (inactive) | > 30 µM (inactive)
N#CC1(c2ccc(NC(=O)c3cccnc3NCc3ccncc3)cc2)CCCC1 [RIVOCERANIB] | > 30 µM (inactive) | > 30 µM (inactive) | > 30 µM (inactive) | > 30 µM (inactive) | > 30 µM (inactive) | > 30 µM (inactive) | > 30 µM (inactive) | > 30 µM (inactive) | > 30 µM (inactive) | > 30 µM (inactive) | > 30 µM (inactive) | > 30 µM (inactive) | > 30 µM (inactive) | > 30 µM (inactive)
O=c1[nH]ccc2cc(OC3CCNCC3)ccc12 [SAR-407899 FREE BASE] | > 30 µM (inactive) | > 30 µM (inactive) | > 30 µM (inactive) | > 30 µM (inactive) | > 30 µM (inactive) | > 30 µM (inactive) | > 30 µM (inactive) | > 30 µM (inactive) | > 30 µM (inactive) | > 30 µM (inactive) | 0.008 µM (active) | > 30 µM (inactive) | > 30 µM (inactive) | > 30 µM (inactive)
Cn1cc(-c2cnn3c(N)c(Br)c([C@@H]4CCCNC4)nc23)cn1 [SCH-900776] | > 30 µM (inactive) | > 30 µM (inactive) | > 30 µM (inactive) | > 30 µM (inactive) | > 30 µM (inactive) | > 30 µM (inactive) | > 30 µM (inactive) | > 30 µM (inactive) | > 30 µM (inactive) | > 30 µM (inactive) | > 30 µM (inactive) | > 30 µM (inactive) | > 30 µM (inactive) | > 30 µM (inactive)
CO[C@H]1C[C@@H]2CC[C@@H](C)[C@@](O)(O2)C(=O)C(=O)N2CCCC[C@H]2C(=O)O[C@H]([C@H](C)C[C@@H]2CC[C@@H](O)[C@H](OC)C2)CC(=O)[C@H](C)/C=C(\C)[C@@H](O)[C@@H](OC)C(=O)[C@H](C)C[C@H](C)/C=C/C=C/C=C/1C [SIROLIMUS] | > 30 µM (inactive) | > 30 µM (inactive) | > 30 µM (inactive) | > 30 µM (inactive) | > 30 µM (inactive) | > 30 µM (inactive) | > 30 µM (inactive) | > 30 µM (inactive) | > 30 µM (inactive) | > 30 µM (inactive) | > 30 µM (inactive) | > 30 µM (inactive) | > 30 µM (inactive) | > 30 µM (inactive)
CO[C@H]1C[C@@H]2CC[C@@H](C)[C@@](O)(O2)C(=O)C(=O)N2CCCC[C@H]2C(=O)O[C@H]([C@H](C)C[C@@H]2CC[C@@H](OC(=O)C(C)(CO)CO)[C@H](OC)C2)CC(=O)[C@H](C)/C=C(\C)[C@@H](O)[C@@H](OC)C(=O)[C@H](C)C[C@H](C)/C=C/C=C/C=C/1C [TEMSIROLIMUS] | > 30 µM (inactive) | > 30 µM (inactive) | > 30 µM (inactive) | > 30 µM (inactive) | > 30 µM (inactive) | > 30 µM (inactive) | > 30 µM (inactive) | > 30 µM (inactive) | > 30 µM (inactive) | > 30 µM (inactive) | > 30 µM (inactive) | > 30 µM (inactive) | > 30 µM (inactive) | > 30 µM (inactive)
COc1cc2c(Nc3ccc(Cl)c(Cl)c3F)ncnc2cc1OC[C@@H]1C[C@@H]2CN(C)C[C@@H]2C1 [TESEVATINIB] | > 30 µM (inactive) | > 30 µM (inactive) | > 30 µM (inactive) | > 30 µM (inactive) | > 30 µM (inactive) | 0.038 µM (active) | > 30 µM (inactive) | > 30 µM (inactive) | > 30 µM (inactive) | > 30 µM (inactive) | > 30 µM (inactive) | > 30 µM (inactive) | 0.033 µM (active) | > 30 µM (inactive)
O=C(Cc1ccc(-c2ccc(OCCN3CCOCC3)cc2)cn1)NCc1ccccc1 [TIRBANIBULIN] | > 30 µM (inactive) | > 30 µM (inactive) | > 30 µM (inactive) | > 30 µM (inactive) | > 30 µM (inactive) | > 30 µM (inactive) | > 30 µM (inactive) | > 30 µM (inactive) | > 30 µM (inactive) | > 30 µM (inactive) | > 30 µM (inactive) | > 30 µM (inactive) | > 30 µM (inactive) | > 30 µM (inactive)
O=C1NC(=O)[C@@H](c2cn3c4c(cccc24)CCC3)[C@@H]1c1c[nH]c2ccccc12 [TIVANTINIB] | > 30 µM (inactive) | > 30 µM (inactive) | > 30 µM (inactive) | > 30 µM (inactive) | > 30 µM (inactive) | > 30 µM (inactive) | > 30 µM (inactive) | > 30 µM (inactive) | > 30 µM (inactive) | > 30 µM (inactive) | > 30 µM (inactive) | > 30 µM (inactive) | > 30 µM (inactive) | > 30 µM (inactive)
C[C@@H](NC(=O)c1ncnc(N)c1Cl)c1ncc(C(=O)Nc2cc(C(F)(F)F)c(Cl)cn2)s1 [TOVORAFENIB] | > 30 µM (inactive) | > 30 µM (inactive) | > 30 µM (inactive) | 0.942 µM (active) | 3.22 µM (active) | > 30 µM (inactive) | > 30 µM (inactive) | > 30 µM (inactive) | > 30 µM (inactive) | > 30 µM (inactive) | > 30 µM (inactive) | > 30 µM (inactive) | > 30 µM (inactive) | > 30 µM (inactive)
CC(C)c1cc(CNc2nc(Nc3cc(C4CC4)[nH]n3)cc(N3CCN(C)CC3)n2)on1 [XL-228] | > 30 µM (inactive) | > 30 µM (inactive) | > 30 µM (inactive) | > 30 µM (inactive) | > 30 µM (inactive) | > 30 µM (inactive) | 7.03 µM | > 30 µM (inactive) | > 30 µM (inactive) | 2.37 µM (active) | > 30 µM (inactive) | 2.28 µM (active) | > 30 µM (inactive) | 3.08 µM
